7 compounds from patent US7671068B2, “N-(alkoxyalkyl) carbamoyl-substituted 6-phenyl-benzonaphthyridine derivatives and their use as PDE ¾ inhibitors” (NYCOMED GmbH, priority 2004, dated 2010) can be followed below.

What all share (format): biochemical
Assay [1] addresses T1, PDE4B2 (Homo sapiens, UniProt Q07343).
T1 construct: made in house; host or cells: baculovirus, SF21 insect cells (virus made in SF9); 1000xg supernatant of the homogenate
Nature of the assay: PDE4B2 inhibition, Method B (modified SPA test, recombinant enzyme). The settings on record: 0.5 μM cAMP, read-out: PDE4 [−log IC50, mol/l] (converted). Here is the method:
The PDE4B2 (GB no. M97515) was a gift of Prof. M. Conti (Stanford University, USA). It was amplified from the original plasmid (pCMV5) via PCR with primers Rb9 (5′-[…]-3′) and Rb10 (5′-[…]-3′) and cloned into the pCR-Bac vector (Invitrogen, Groningen, NL).
(§1) The recombinant baculovirus was prepared by means of homologous recombination in SF9 insect cells. The expression plasmids were cotransfected with Bac-N-Blue (Invitrogen, Groningen, NL) or Baculo-Gold DNA (Pharmingen, Hamburg) using a standard protocol (Pharmingen, Hamburg). Wt virus-free recombinant virus supernatants were selected using plaque assay methods. After that, high-titre virus supernatants were prepared by amplifying 3 times. PDEs were expressed in SF21 cells by infecting 2×10^6 cells/ml with an MOI (multiplicity of infection) between 1 and 10 in serum-free SF900 medium (Life Technologies, Paisley, UK). The cells were cultured at 28° C. for 48-72 hours, after which they were pelleted for 5-10 min at 1000 g and 4° C.
(§2) The SF21 insect cells were resuspended, at a concentration of approx. 10^7 cells/ml, in ice-cold (4° C.) homogenization buffer (20 mM Tris, pH 8.2, containing the following additions: 140 mM NaCl, 3.8 mM KCl, 1 mM EGTA, 1 mM MgCl2, 10 mM β-mercaptoethanol, 2 mM benzamidine, 0.4 mM Pefablock, 10 μM leupeptin, 10 μM pepstatin A, 5 μM trypsin inhibitor) and disrupted by ultrasonication. The homogenate was then centrifuged for 10 min at 1000×g and the supernatant was stored at −80° C. until subsequent use (see below). The protein content was determined by the Bradford method (BioRad, Munich) using BSA as the standard.
PDE3A1 and PDE4B2 activities were inhibited by the said compounds in a modified SPA (scintillation proximity assay) test, supplied by Amersham Biosciences (see procedural instructions “phosphodiesterase [3H]cAMP SPA enzyme assay, code TRKQ 7090”), carried out in 96-well microtitre plates (MTP's). The test volume is 100 μl and contains 20 mM Tris buffer (pH 7.4), 0.1 mg of BSA (bovine serum albumin)/ml, 5 mM Mg^2+, 0.5 μM cAMP (including about 50,000 cpm of [3H]cAMP), 1 μl of the respective substance dilution in DMSO and sufficient recombinant PDE (1000×g supernatant, see above) to ensure that 10-20% of the cAMP is converted under the said experimental conditions. […] After a preincubation of 5 min at 37° C., the reaction is started by adding the substrate (cAMP) and the assays are incubated for a further 15 min; after that, they are stopped by adding SPA beads (50 μl). In accordance with the manufacturer's instructions, the SPA beads had previously been resuspended in water, but were then diluted 1:3 (v/v) in water; the diluted solution also contains 3 mM IBMX to ensure a complete PDE activity stop. After the beads have been sedimented (>30 min), the MTP's are analyzed in commercially available luminescence detection devices. The corresponding IC50 values of the compounds for the inhibition of PDE activities are determined from the concentration-effect curves by means of non-linear regression.
(§3) The inhibitory values of the compounds 1-16 and 22-24 have been determined according to Method A. The inhibitory values of the compounds 17-21 have been determined according to Method B.

Assay [2] addresses T2, PDE3A1 (Homo sapiens, UniProt Q14432).
T2 construct: The whole ORF was subcloned into pBacPak9 (Clontech, Palo Alto) using EcoRI; made in house; host or cells: baculovirus (pBacPak9), SF21 insect cells (virus made in SF9); 1000xg supernatant of the homogenate
As to the kind of experiment: PDE3A1 inhibition, Method B (modified SPA test, recombinant enzyme). The settings on record: 0.5 μM cAMP, read-out: PDE3 [−log IC50, mol/l] (converted).
From the text: The cDNA for PDE3A1 (GB no. U36798) was isolated in 2 steps using PCR. A 3′ terminal cDNA fragment of PDE3A1 was amplified from fat cells cDNA (Clontech, Palo Alto) using primers OZ 458 (5′-[…]-3′) and OZ 457 (5′-[…]-3′). The 5′ terminal cDNA fragment of PDE3A1 was amplified from Placenta cDNA (Clontech, Palo Alto) using primers OZ 455 (5′-[…]-3′) and OZ 456 (5′-[…]-3′). The PCR products were cloned into pCR2.1-Topo (Invitrogen, Groningen, NL) under standard conditions (the manufacturer's instructions). The 3′ fragment was cut out with HindII and cloned into the HindII site of the construct carrying the 5′ fragment. The whole ORF was subcloned into pBacPak9 (Clontech, Palo Alto) using EcoRI. Aminoacid 12 is Aspartic Acid like in sequence GB no. AJ005036, aa 69 and aa 110 are respective Serine and Glycine like in both sequences GB no. AJ005036 and GB no. M91667.
as §1, §2
PDE3A1 and PDE4B2 activities were inhibited by the said compounds in a modified SPA (scintillation proximity assay) test, supplied by Amersham Biosciences (see procedural instructions “phosphodiesterase [3H]cAMP SPA enzyme assay, code TRKQ 7090”), carried out in 96-well microtitre plates (MTP's). The test volume is 100 μl and contains 20 mM Tris buffer (pH 7.4), 0.1 mg of BSA (bovine serum albumin)/ml, 5 mM Mg^2+, 0.5 μM cAMP (including about 50,000 cpm of [3H]cAMP), 1 μl of the respective substance dilution in DMSO and sufficient recombinant PDE (1000×g supernatant, see above) to ensure that 10-20% of the cAMP is converted under the said experimental conditions. […] After the beads have been sedimented (>30 min), the MTP's are analyzed in commercially available luminescence detection devices. The corresponding IC50 values of the compounds for the inhibition of PDE activities are determined from the concentration-effect curves by means of non-linear regression.
as §3

For assay [3], the target named is T3, PDE3 (cGMP-inhibited) in homogenates of human platelets (Homo sapiens, UniProt Q14432).
T3 construct: investigated in homogenates of human platelets; from tissue; host or cells: homogenates of human platelets
T3 sequence (Q14432 whole entry): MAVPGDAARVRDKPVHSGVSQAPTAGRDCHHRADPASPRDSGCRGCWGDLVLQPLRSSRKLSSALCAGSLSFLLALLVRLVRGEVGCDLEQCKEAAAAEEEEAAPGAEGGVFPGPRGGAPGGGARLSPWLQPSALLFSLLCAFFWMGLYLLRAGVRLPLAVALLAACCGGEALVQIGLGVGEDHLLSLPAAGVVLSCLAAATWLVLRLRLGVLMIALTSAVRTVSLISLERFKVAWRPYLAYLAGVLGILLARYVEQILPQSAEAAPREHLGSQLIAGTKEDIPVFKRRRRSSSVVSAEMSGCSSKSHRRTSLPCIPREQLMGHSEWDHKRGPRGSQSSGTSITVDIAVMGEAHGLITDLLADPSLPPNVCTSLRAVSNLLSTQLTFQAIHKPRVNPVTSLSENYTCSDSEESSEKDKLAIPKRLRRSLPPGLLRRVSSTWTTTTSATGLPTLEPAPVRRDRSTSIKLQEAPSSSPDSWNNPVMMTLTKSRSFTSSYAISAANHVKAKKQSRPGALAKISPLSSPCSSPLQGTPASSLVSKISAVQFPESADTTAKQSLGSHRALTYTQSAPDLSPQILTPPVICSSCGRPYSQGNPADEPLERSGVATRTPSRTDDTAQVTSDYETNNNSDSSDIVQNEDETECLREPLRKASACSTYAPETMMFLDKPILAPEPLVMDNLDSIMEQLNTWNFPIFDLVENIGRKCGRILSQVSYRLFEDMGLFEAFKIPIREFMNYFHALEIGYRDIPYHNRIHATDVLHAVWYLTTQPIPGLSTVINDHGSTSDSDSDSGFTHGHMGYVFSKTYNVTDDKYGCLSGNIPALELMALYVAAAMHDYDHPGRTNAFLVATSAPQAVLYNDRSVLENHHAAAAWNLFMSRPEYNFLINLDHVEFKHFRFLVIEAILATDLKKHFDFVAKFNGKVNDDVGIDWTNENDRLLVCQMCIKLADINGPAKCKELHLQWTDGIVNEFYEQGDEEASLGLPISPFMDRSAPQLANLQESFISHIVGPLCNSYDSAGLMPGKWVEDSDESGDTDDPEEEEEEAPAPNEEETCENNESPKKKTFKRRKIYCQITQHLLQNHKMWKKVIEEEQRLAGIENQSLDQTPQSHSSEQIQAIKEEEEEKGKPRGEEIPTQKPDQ
As to the kind of experiment: PDE3 inhibition, Method A (radioactive PDE assay after Thompson et al.). The settings on record: read-out: PDE3 [−log IC50, mol/l] (converted). Here is the method:
(§4) The PDE activity was determined according to Thompson et al. (Adv Cycl Nucl Res 10: 69-92, 1979) with some modifications (Bauer and Schwabe, Naunyn-Schmiedeberg's Arch Pharmacol 311: 193-198, 1980). The test samples contained 20 mM Tris (pH 7.4), 5 mM MgCl2, 0.5 μM CAMP or cGMP, [^3H]cAMP or [^3H]cGMP (about 30 000 cpm/sample), the PDE isoenzyme-specific additives described in greater detail below, the indicated concentrations of inhibitor and an aliquot of the enzyme solution in a total sample volume of 200 μl. Dilution series of the compounds according to the invention were prepared in DMSO and further diluted in the samples [1:100 (v/v)], to give the desired end concentration of the inhibitors at a DMSO concentration of 1% (v/v), which for its part has only a minute effect on PDE activity.
(§5) After preincubation at 37° C. for 5 minutes, the reaction was started by addition of the substrate (CAMP or cGMP). The samples were incubated at 37° C. for a further 15 min. The reaction was terminated by addition of 50 μl 0.2 N HCl. After cooling on ice for 10 minutes and addition of 25 μg 5′-nucleotidase (snake venom from Crotalus atrox), the mixture was again incubated at 37° C. for 10 min and the samples were then applied to QAE Sephadex A-25 columns (sample volume 1 ml). The columns were eluted with 2 ml of 30 mM ammonium formate (pH 6.0). The radioactivity of the eluate was measured and corrected by the corresponding blank values (measured in the presence of denatured protein); the blank values were less than 5% of the total radioactivity. In no case did the proportion of hydrolyzed nucleotide exceed 30% of the original substrate concentration.
PDE3 (cGMP-inhibited) was investigated in homogenates of human platelets (see Schudt et al., Biochem Pharmacol 1991: 42, 153-162) using CAMP or cGMP as substrate.
(§6) The IC50 values were determined from the concentration-inhibition curves by nonlinear regression.
as §3

Assay [4] deals with PDE4 (cAMP-specific) in the cytosol of human polymorphonuclear leukocytes (PMNL). As to the kind of experiment: PDE4 inhibition, Method A (radioactive PDE assay after Thompson et al.). The settings on record: cAMP substrate, motapizone 1 μM. Here is the method: as §4, §5
PDE4 (cAMP-specific) was investigated in the cytosol of human polymorphonuclear leukocytes (PMNL) [isolated from leukocyte concentrates, see Schudt et al., Arch Pharmacol 1991: 344, 682-690] using cAMP as substrate. The PDE3 inhibitor motapizone (1 μM) was used to suppress the PDE3 activity emanating from contaminated platelets.
as §6, §3

T1 sequence (Q07343 1-564 isoform Q07343-2): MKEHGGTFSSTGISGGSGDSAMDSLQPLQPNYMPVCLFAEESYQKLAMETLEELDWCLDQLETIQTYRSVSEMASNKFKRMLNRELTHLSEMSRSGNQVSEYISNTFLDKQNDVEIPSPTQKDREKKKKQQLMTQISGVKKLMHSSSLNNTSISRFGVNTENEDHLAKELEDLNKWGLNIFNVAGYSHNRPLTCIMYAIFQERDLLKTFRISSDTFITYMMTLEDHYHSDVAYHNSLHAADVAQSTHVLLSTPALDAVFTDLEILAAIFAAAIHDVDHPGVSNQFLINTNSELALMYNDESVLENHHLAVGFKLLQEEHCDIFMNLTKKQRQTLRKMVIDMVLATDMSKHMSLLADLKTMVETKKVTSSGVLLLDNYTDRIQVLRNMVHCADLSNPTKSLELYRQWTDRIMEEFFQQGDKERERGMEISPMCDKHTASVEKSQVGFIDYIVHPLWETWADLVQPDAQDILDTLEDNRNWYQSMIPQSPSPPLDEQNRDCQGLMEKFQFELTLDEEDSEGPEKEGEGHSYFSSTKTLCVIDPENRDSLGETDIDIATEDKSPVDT
T2 sequence (Q14432 whole entry): as the sequence (Q14432 whole entry) above

On to `CCOc1cc2c(cc1OC)C(c1ccc(C(=O)N(C(C)C)[C@@H](C)COCc3cc(OC)cc(OC)c3)cc1)=N[C@@H]1CCN(C)C[C@H]21` [Compound 17, N—[(S)-2-(3,5-Dimethoxy-benzyloxy)-1-methyl-ethyl]-4-((4aR,10bS)-9-ethoxy-8-methoxy-2-methyl-1,2,3,4,4a,10b-hexahydro-benzo[c][1,6]naphthyridin-6-yl)-N-isopropyl-benzamide], for which the figures for the IC50 in assay [1] and in assay [2] were 0.316 nM and 39.8 nM, respectively.

Regarding `CCOc1cc2c(cc1OC)C(c1ccc(C(=O)N(C(C)C)[C@@H](C)COCc3ccc(C(F)(F)F)cc3)cc1)=N[C@@H]1CCN(C)C[C@H]21` [Compound 18, 4-((4aR,10bS)-9-Ethoxy-8-methoxy-2-methyl-1,2,3,4,4a,10b-hexahydro-benzo [c][1,6]naphthyridin-6-yl)-N-isopropyl-N—[(S)-1-methyl-2-(4-trifluoromethyl-benzyloxy)-ethyl]-benzamide], the IC50 in assay [1] was 1 nM; in assay [2], 79.4 nM.

Turning to `CCOc1cc2c(cc1OC)C(c1ccc(C(=O)N(C(C)C)[C@@H](C)COCc3ccc(C#N)cc3)cc1)=N[C@@H]1CCN(C)C[C@H]21` [Compound 19, N—[(S)-2-(4-Cyano-benzyloxy)-1-methyl-ethyl]-4-((4aR,10bS)-9-ethoxy-8-methoxy-2-methyl-1,2,3,4,4a,10b-hexahydro-benzo[c][1,6]naphthyridin-6-yl)-N-isopropyl-benzamide], the IC50 in assay [1] was 0.398 nM; in assay [2], 25.1 nM.

For `CCOc1cc2c(cc1OC)C(c1ccc(C(=O)N(C(C)C)[C@@H](C)COCc3ccc(OC)cc3)cc1)=N[C@@H]1CCN(C)C[C@H]21` [Compound 20, 4-((4aR,10bS)-9-Ethoxy-8-methoxy-2-methyl-1,2,3,4,4a,10b-hexahydro-benzo [c][1,6]naphthyridin-6-yl)-N-isopropyl-N—[(S)-2-(4-methoxy-benzyloxy)-1-methyl-ethyl]-benzamide], the IC50 in assay [1] was 0.316 nM; in assay [2], 39.8 nM.

On to `CCOc1cc2c(cc1OC)C(c1ccc(C(=O)N(C(C)C)[C@@H](C)COCCCc3ccccc3)cc1)=N[C@@H]1CCN(C)C[C@H]21` [Compound 21, 4-((4aR,10bS)-9-Ethoxy-8-methoxy-2-methyl-1,2,3,4,4a,10b-hexahydro-benzo [c][1,6]naphthyridin-6-yl)-N-isopropyl-N—[(S)-1-methyl-2-(3-phenyl-propoxy)-ethyl]-benzamide], for which the IC50 in assay [1] was 2 nM; in assay [2] it was 39.8 nM.

In the case of `CCOc1cc2c(cc1OC)C(c1ccc(C(=O)N(Cc3ccccc3)[C@@H](C)COCc3ccccc3)cc1)=N[C@@H]1CCN(C)C[C@H]21` [Compound 23, N-Benzyl-N-((S)-2-benzyloxy-1-methyl-ethyl)-4-((4aR,10bS)-9-ethoxy-8-methoxy-2-methyl-1,2,3,4,4a,10b-hexahydro-benzo[c][1,6]naphthyridin-6-yl)-benzamide], the IC50 in assay [3] was 158 nM. Also, the “PDE4 [−log IC50, mol/l]” value in assay [4] was found to be 9.5 mol/l.

Consider `CCOc1cc2c(cc1OC)C(c1ccc(C(=O)N[C@@H](C)COCc3ccccc3)cc1)=N[C@@H]1CCN(C)C[C@H]21` [Compound 24, N—((S)-2-Benzyloxy-1-methyl-ethyl)-4-((4aR,10bS)-9-ethoxy-8-methoxy-2-methyl-1,2,3,4,4a,10b-hexahydro-benzo[c][1,6]naphthyridin-6-yl)-benzamide], for which, in assay [3], the IC50 is 251 nM. In addition, the “PDE4 [−log IC50, mol/l]” value in assay [4] is 9.0 mol/l.
